The test system of assay [1] is knee prosthesis in patients. As to conditions: administered orally to patients undergoing total knee replacement; cited from earlier work.
Assay [2] deals with bone-connecting implant in a human. The assay can be described thus: Displacement or migration of implant by radiosterometric analysis (RSA) in patients treated with PTH. In kind it is in vivo. An excerpt: For example, in Hilding, M. et al., Acta Orthopaedica Scandinavica 71:553-557 (2000), several 0.8 mm tantalum markers were positioned in both the proximal tibia and the plastic insert during total knee replacement surgeries. The positions of the markers were followed by radiographs taken one day, six weeks, six months and one year following the operation as a means to monitor postoperative implant shifting. Other techniques for measuring or evaluating the stability of bone-connecting implants are known to those skilled in the art and may be applied to the present invention.
The displacement or migration of the implanted artificial hip is measured over a 6-month period using radiosterometric analysis (RSA) as described in Hilding et al., supra.
The displacement or migration of the implanted artificial hip is measured over a 9-month period using radiosterometric analysis (RSA) as described in Hilding et al., supra.
The displacement or migration of the implanted tibia is measured over a 4-month period using radiosterometric analysis (RSA) as described in Hilding et al., supra.
The displacement or migration of the implanted artificial knee is measured over a 12-month period using radiosterometric analysis (RSA) as described in Hilding et al., supra.

Assay [3] concerns humans suffering from osteoporosis. To be noted: cited from earlier work.
The subject of assay [4] is rats, titanium bone chamber. To be noted: 15-240 μg/kg/day for six weeks; cited from earlier work.
Assay [5] deals with rats, stainless steel screw. As to conditions: 60 μg/kg/day for four weeks; cited from earlier work.

As for `O=P(O)(O)C(Cl)(Cl)P(=O)(O)O` [Clodronate], the prosthetic migration entry in assay [1] is on record as “appeared to reduce prosthetic migration”.

For “PTH(1-34): The N-terminal 34 amino acids of human PTH (parathyroid hormone); PTH utilized in Examples 1-5 (SVSEIQLMHNLGKHLNSMERVEWLRKKLQDVHNF; Parathyroid hormone; UniProt P01270 32-65, looked up, fragment)”, the likelihood of reoperation result in assay [2] (Example 1: person, osteoporosis, artificial hip, regimen of Table 1) was “reduce the likelihood of reoperation”; in assay [2] (Example 2: person, osteoarthritis, artificial hip, regimen of Table 2), “reduce the likelihood of reoperation”; in assay [2] (Example 3: person, tibia replacement, regimen of Table 3), “reduce the likelihood of reoperation”; in assay [2] (Example 4: person, knee replacement, regimen of Table 4), “reduce the likelihood of a reoperation”; in assay [2] (Example 5: person, artificial hip, regimen of Table 5), “reduce the likelihood of reoperation”. The fractures result in assay [3] is reported as “reduce fractures”. The “spinal bone mineral content” value in assay [3] is on record as “increase spinal bone mineral content”. The new bone formation entry in assay [4] is “enhances new bone formation”. The “fixation of a stainless steel screw” value in assay [5] is “enhances fixation of a stainless steel screw”.
